{"source": "the CheMixHub ionic liquid set", "experiment": "xn = mol fraction of the nth substance listed", "settings": "for electrical conductivity: frequency 0 MHz", "note": "± gives the uncertainty stated by the source."}
{"molecule": "CCCCCCCCCCCCCCCC[N+](C)(C)C.[Br-]", "note": "+ O=C(CO)[C@@H](O)[C@H](O)[C@@H](O)CO + O", "values": [{"measurement": "viscosity", "setting": "298.15 K, 100 kPa, x1 = 7.21e-06, x2 = 0", "result": "0.896 ± 0.06", "unit": "mPa·s"}, {"measurement": "viscosity", "setting": "298.15 K, 100 kPa, x1 = 1.442e-05, x2 = 0", "result": "0.898 ± 0.06", "unit": "mPa·s"}, {"measurement": "viscosity", "setting": "298.15 K, 100 kPa, x1 = 2.162e-05, x2 = 0", "result": "0.9 ± 0.06", "unit": "mPa·s"}, {"measurement": "viscosity", "setting": "308.15 K, 100 kPa, x1 = 7.21e-06, x2 = 0", "result": "0.742 ± 0.06", "unit": "mPa·s"}, {"measurement": "viscosity", "setting": "308.15 K, 100 kPa, x1 = 1.442e-05, x2 = 0", "result": "0.744 ± 0.06", "unit": "mPa·s"}, {"measurement": "viscosity", "setting": "308.15 K, 100 kPa, x1 = 2.162e-05, x2 = 0", "result": "0.745 ± 0.06", "unit": "mPa·s"}, {"measurement": "viscosity", "setting": "318.15 K, 100 kPa, x1 = 7.21e-06, x2 = 0", "result": "0.617 ± 0.06", "unit": "mPa·s"}, {"measurement": "viscosity", "setting": "318.15 K, 100 kPa, x1 = 1.442e-05, x2 = 0", "result": "0.617 ± 0.06", "unit": "mPa·s"}, {"measurement": "viscosity", "setting": "318.15 K, 100 kPa, x1 = 2.162e-05, x2 = 0", "result": "0.617 ± 0.06", "unit": "mPa·s"}]}
{"molecule": "CCCC[P+](CCCC)(CCCC)CCCC.[O-]c1cccnc1", "note": "+ O=C=O", "values": [{"measurement": "viscosity", "setting": "293 K, 101 kPa, x2 = 0.5098", "result": 90000, "unit": "mPa·s"}]}
{"molecule": "CCCCCCCCCCCCCCCC[N+](C)(C)C.[Br-]", "note": "+ O=C[C@H](O)[C@@H](O)[C@H](O)[C@H](O)CO + O", "values": [{"measurement": "viscosity", "setting": "298.15 K, 100 kPa, x2 = 0, x1 = 7.21e-06", "result": "0.896 ± 0.06", "unit": "mPa·s"}, {"measurement": "viscosity", "setting": "298.15 K, 100 kPa, x2 = 0, x1 = 1.442e-05", "result": "0.898 ± 0.06", "unit": "mPa·s"}, {"measurement": "viscosity", "setting": "298.15 K, 100 kPa, x2 = 0, x1 = 2.162e-05", "result": "0.9 ± 0.06", "unit": "mPa·s"}, {"measurement": "viscosity", "setting": "298.15 K, 100 kPa, x2 = 0.0008068, x1 = 7.2e-06", "result": "0.918 ± 0.06", "unit": "mPa·s"}, {"measurement": "viscosity", "setting": "298.15 K, 100 kPa, x2 = 0.000976, x1 = 1.44e-05", "result": "0.926 ± 0.06", "unit": "mPa·s"}, {"measurement": "viscosity", "setting": "298.15 K, 100 kPa, x2 = 0.001569, x1 = 7.2e-06", "result": "0.939 ± 0.06", "unit": "mPa·s"}, {"measurement": "viscosity", "setting": "298.15 K, 100 kPa, x2 = 0.001577, x1 = 2.159e-05", "result": "0.946 ± 0.06", "unit": "mPa·s"}, {"measurement": "viscosity", "setting": "298.15 K, 100 kPa, x2 = 0.001582, x1 = 1.439e-05", "result": "0.943 ± 0.06", "unit": "mPa·s"}, {"measurement": "viscosity", "setting": "298.15 K, 100 kPa, x2 = 0.001962, x1 = 7.19e-06", "result": "0.949 ± 0.06", "unit": "mPa·s"}, {"measurement": "viscosity", "setting": "298.15 K, 100 kPa, x2 = 0.001965, x1 = 2.158e-05", "result": "0.957 ± 0.06", "unit": "mPa·s"}, {"measurement": "viscosity", "setting": "298.15 K, 100 kPa, x2 = 0.00197, x1 = 1.439e-05", "result": "0.955 ± 0.06", "unit": "mPa·s"}, {"measurement": "viscosity", "setting": "298.15 K, 100 kPa, x2 = 0.002365, x1 = 2.157e-05", "result": "0.968 ± 0.061", "unit": "mPa·s"}, {"measurement": "viscosity", "setting": "298.15 K, 100 kPa, x2 = 0.002661, x1 = 1.438e-05", "result": "0.974 ± 0.061", "unit": "mPa·s"}, {"measurement": "viscosity", "setting": "298.15 K, 100 kPa, x2 = 0.002693, x1 = 2.157e-05", "result": "0.978 ± 0.061", "unit": "mPa·s"}, {"measurement": "viscosity", "setting": "298.15 K, 100 kPa, x2 = 0.0027, x1 = 7.19e-06", "result": "0.969 ± 0.061", "unit": "mPa·s"}, {"measurement": "viscosity", "setting": "308.15 K, 100 kPa, x2 = 0, x1 = 7.21e-06", "result": "0.742 ± 0.06", "unit": "mPa·s"}, {"measurement": "viscosity", "setting": "308.15 K, 100 kPa, x2 = 0, x1 = 1.442e-05", "result": "0.744 ± 0.06", "unit": "mPa·s"}, {"measurement": "viscosity", "setting": "308.15 K, 100 kPa, x2 = 0, x1 = 2.162e-05", "result": "0.745 ± 0.06", "unit": "mPa·s"}, {"measurement": "viscosity", "setting": "308.15 K, 100 kPa, x2 = 0.0008068, x1 = 7.2e-06", "result": "0.76 ± 0.06", "unit": "mPa·s"}, {"measurement": "viscosity", "setting": "308.15 K, 100 kPa, x2 = 0.0009851, x1 = 2.16e-05", "result": "0.768 ± 0.06", "unit": "mPa·s"}, {"measurement": "viscosity", "setting": "308.15 K, 100 kPa, x2 = 0.001255, x1 = 2.16e-05", "result": "0.774 ± 0.06", "unit": "mPa·s"}, {"measurement": "viscosity", "setting": "308.15 K, 100 kPa, x2 = 0.001314, x1 = 1.44e-05", "result": "0.774 ± 0.06", "unit": "mPa·s"}, {"measurement": "viscosity", "setting": "308.15 K, 100 kPa, x2 = 0.001569, x1 = 7.2e-06", "result": "0.777 ± 0.06", "unit": "mPa·s"}, {"measurement": "viscosity", "setting": "308.15 K, 100 kPa, x2 = 0.001577, x1 = 2.159e-05", "result": "0.782 ± 0.06", "unit": "mPa·s"}, {"measurement": "viscosity", "setting": "308.15 K, 100 kPa, x2 = 0.001965, x1 = 2.158e-05", "result": "0.791 ± 0.06", "unit": "mPa·s"}, {"measurement": "viscosity", "setting": "308.15 K, 100 kPa, x2 = 0.002321, x1 = 7.19e-06", "result": "0.793 ± 0.06", "unit": "mPa·s"}, {"measurement": "viscosity", "setting": "308.15 K, 100 kPa, x2 = 0.00235, x1 = 1.438e-05", "result": "0.798 ± 0.06", "unit": "mPa·s"}, {"measurement": "viscosity", "setting": "308.15 K, 100 kPa, x2 = 0.002365, x1 = 2.157e-05", "result": "0.8 ± 0.06", "unit": "mPa·s"}, {"measurement": "viscosity", "setting": "308.15 K, 100 kPa, x2 = 0.002661, x1 = 1.438e-05", "result": "0.805 ± 0.061", "unit": "mPa·s"}, {"measurement": "viscosity", "setting": "308.15 K, 100 kPa, x2 = 0.002693, x1 = 2.157e-05", "result": "0.808 ± 0.061", "unit": "mPa·s"}, {"measurement": "viscosity", "setting": "308.15 K, 100 kPa, x2 = 0.0027, x1 = 7.19e-06", "result": "0.802 ± 0.061", "unit": "mPa·s"}, {"measurement": "viscosity", "setting": "318.15 K, 100 kPa, x2 = 0, x1 = 7.21e-06", "result": "0.617 ± 0.06", "unit": "mPa·s"}, {"measurement": "viscosity", "setting": "318.15 K, 100 kPa, x2 = 0, x1 = 1.442e-05", "result": "0.617 ± 0.06", "unit": "mPa·s"}, {"measurement": "viscosity", "setting": "318.15 K, 100 kPa, x2 = 0, x1 = 2.162e-05", "result": "0.617 ± 0.06", "unit": "mPa·s"}, {"measurement": "viscosity", "setting": "318.15 K, 100 kPa, x2 = 0.000976, x1 = 1.44e-05", "result": "0.635 ± 0.06", "unit": "mPa·s"}, {"measurement": "viscosity", "setting": "318.15 K, 100 kPa, x2 = 0.0009851, x1 = 2.16e-05", "result": "0.636 ± 0.06", "unit": "mPa·s"}, {"measurement": "viscosity", "setting": "318.15 K, 100 kPa, x2 = 0.00106, x1 = 7.2e-06", "result": "0.636 ± 0.06", "unit": "mPa·s"}, {"measurement": "viscosity", "setting": "318.15 K, 100 kPa, x2 = 0.001255, x1 = 2.16e-05", "result": "0.641 ± 0.06", "unit": "mPa·s"}, {"measurement": "viscosity", "setting": "318.15 K, 100 kPa, x2 = 0.001569, x1 = 7.2e-06", "result": "0.645 ± 0.06", "unit": "mPa·s"}, {"measurement": "viscosity", "setting": "318.15 K, 100 kPa, x2 = 0.001577, x1 = 2.159e-05", "result": "0.647 ± 0.06", "unit": "mPa·s"}, {"measurement": "viscosity", "setting": "318.15 K, 100 kPa, x2 = 0.001582, x1 = 1.439e-05", "result": "0.647 ± 0.06", "unit": "mPa·s"}, {"measurement": "viscosity", "setting": "318.15 K, 100 kPa, x2 = 0.001965, x1 = 2.158e-05", "result": "0.655 ± 0.06", "unit": "mPa·s"}, {"measurement": "viscosity", "setting": "318.15 K, 100 kPa, x2 = 0.00197, x1 = 1.439e-05", "result": "0.654 ± 0.06", "unit": "mPa·s"}, {"measurement": "viscosity", "setting": "318.15 K, 100 kPa, x2 = 0.002321, x1 = 7.19e-06", "result": "0.659 ± 0.06", "unit": "mPa·s"}, {"measurement": "viscosity", "setting": "318.15 K, 100 kPa, x2 = 0.002365, x1 = 2.157e-05", "result": "0.662 ± 0.06", "unit": "mPa·s"}, {"measurement": "viscosity", "setting": "318.15 K, 100 kPa, x2 = 0.002661, x1 = 1.438e-05", "result": "0.667 ± 0.06", "unit": "mPa·s"}, {"measurement": "viscosity", "setting": "318.15 K, 100 kPa, x2 = 0.002693, x1 = 2.157e-05", "result": "0.669 ± 0.06", "unit": "mPa·s"}]}
{"molecule": "C1CN=C2CCCN2C1", "note": "+ O=S(=O)([N-]S(=O)(=O)C(F)(F)F)C(F)(F)F.[Li+]", "values": [{"measurement": "electrical conductivity", "setting": "338.15 K, 101 kPa, x1 = 0.8", "result": "0.0385 ± 0.00043", "unit": "S/m"}, {"measurement": "viscosity", "setting": "338.15 K, 101 kPa, x1 = 0.8", "result": "236 ± 13", "unit": "mPa·s"}, {"measurement": "electrical conductivity", "setting": "368.15 K, 101 kPa, x1 = 0.8", "result": "0.152 ± 0.0036", "unit": "S/m"}, {"measurement": "viscosity", "setting": "368.15 K, 101 kPa, x1 = 0.8", "result": "37.77 ± 0.88", "unit": "mPa·s"}]}
{"molecule": "CCCC[P+](c1ccccc1)(c1ccccc1)c1ccccc1.[Br-]", "note": "+ O=S=O + OCCO", "values": [{"measurement": "viscosity", "setting": "303.15 K, 100 kPa, x2 = 0.01371, x3 = 0.9622", "result": "22 ± 0.9", "unit": "mPa·s"}, {"measurement": "viscosity", "setting": "313.15 K, 100 kPa, x2 = 0.01059, x3 = 0.9653", "result": "18.4 ± 0.8", "unit": "mPa·s"}, {"measurement": "viscosity", "setting": "323.15 K, 100 kPa, x2 = 0.008625, x3 = 0.9672", "result": "15.5 ± 0.7", "unit": "mPa·s"}, {"measurement": "viscosity", "setting": "333.15 K, 100 kPa, x2 = 0.007346, x3 = 0.9684", "result": "12.9 ± 0.7", "unit": "mPa·s"}, {"measurement": "viscosity", "setting": "343.15 K, 100 kPa, x2 = 0.005964, x3 = 0.9698", "result": "11.5 ± 0.5", "unit": "mPa·s"}]}
